PMC6270413 (2013)

What was measured:
[1] = test system: C-myc quadruplex (DNA, G4) TGGGGAGGGTGGGGAGGGTGGGGAAGG; assay: fluorescence titration; details: K+ 100 mM (KCl); 10 mM Tris-HCl, 0.1 mM EDTA, pH 7.5
[2] = test system: C-myc quadruplex (DNA, G4) TGGGGAGGGTGGGGAGGGTGGGGAAGG; assay: circular dichroism titration; details: K+ 100 mM (KCl); 10 mM Tris-HCl, 0.1 mM EDTA, pH 7.5, 20 °C; 10 µM strand; induced CD only above ratio two
[3] = test system: C-myc quadruplex (DNA, G4) TGGGGAGGGTGGGGAGGGTGGGGAAGG; assay: fluorescent intercalator displacement titration; details: K+ 100 mM (KCl); 10 mM Tris-HCl, 0.1 mM EDTA, pH 7.5; thiazole orange displaced
[4] = test system: C-myc quadruplex (DNA, G4) TGGGGAGGGTGGGGAGGGTGGGGAAGG; assay: UV-Vis absorption (hypochromism, 19 nm bathochromic shift); details: K+ 100 mM (KCl); 10 mM Tris-HCl, 0.1 mM EDTA, pH 7.5, 22–24 °C; 5 µM DNA, 5 µM ligand
[5] = test system: TFO C-myc duplex (Table 2: C-myc duplex) (DNA, duplex) AGGGAGGGAGGTAAGAAAAAGGG/CCCTTTTTCTTACCTCCCTCCCT; assay: FID screen (thiazole orange displacement, single concentration); details: K+ 100 mM (KCl); 10 mM Tris-HCl, 0.1 mM EDTA, pH 7.5, 21–23 °C; 0.25 µM duplex, 0.50 µM TO, ligand 1:1

Compound	binding [1]	binding [2]	DC50 [3]	binding [4]	binding [5]
CN1C(=Cc2cc[n+](C)c3ccccc23)Sc2ccccc21	yes	–	–	–	–
CN1CCN(c2ccc3nc(-c4ccc5nc(-c6ccc(O)cc6)[nH]c5c4)[nH]c3c2)CC1	–	yes	1.58 ± 0.01 µM	yes	yes
NC[C@@H]1O[C@H](O[C@H]2[C@@H](O)[C@H](O[C@@H]3[C@@H](O)[C@H](N)C[C@H](N)[C@H]3O[C@H]3O[C@H](CN)[C@@H](O)[C@H](O)[C@H]3N)O[C@@H]2CO)[C@H](N)[C@@H](O)[C@@H]1O	–	–	> 5.5 µM	–	–
